Measurements taken from patent US10881636B2, “Dihydroartemisinin-steroid conjugate and preparation method and application thereof” (YUNBAIYAO ZHENGWU SCIENCE AND TECHNOLOGY (SHANGHAI) CO., …, priority 2017, dated 2021).
Read-outs that look alike come from different tables or passages of the source.

Experiments:
[1] = tested on: human non-small cell lung cancer cells A549; test: Xenograft model of human lung cancer cell A549; settings: nude mice, 10 mg/kg intraperitoneal, 28 days; for deaths during treatment: JZ-02 group 9 mice, paclitaxel group 5 mice; for tumor inhibition rate: from tumor tissue weight
Description: 23 BALB/c nude mice, weighing 18-22 g and aged 2-4 weeks, were used in the experiment.

[2] = tested on: A549; test: Tumor cell growth inhibition; assay type: cell-based; settings: Homo sapiens
Description: (§1) The adherent cells were digested by pancreatin and suspended to directly collect cells. The cell suspension was centrifuged, and after counted, the cells were seeded in a transparent 96-well culture plate and adjusted to 5×10^3 cells/100 μL/well with respective complete mediums. At the same time, each plate was provided with blank wells without cells and samples and control wells with cells but without samples. The 96-well culture plates were then cultured overnight in a 37° C., 5% CO2 incubator. The test compounds were added at 50 μL/well on the next day, and respective complete mediums were added at the same amount. […] While for the control wells and blank wells, complete mediums rather than the compound samples were added, where the complete culture medium was also added at 100 μL/well. […] 2 h before the end of the incubation, the culture medium was removed, and complete culture medium containing 10% CCK-8 solution was added at 100 μL/well.
(§2) The CC50 was calculated according to the survival rate (%) of Vero cells to reflect the cytotoxic effect of the compounds. The IC50 was calculated according to the growth inhibition (%) of the tumor cells to reflect the antitumor activity of the samples.

[3] = Cytotoxicity on normal cells, CCK-8 assay; assay type: cell-based; settings: African green monkey
Description: (§3) African green monkey kidney cells-Vero cells (CCL-81) were used as normal cells to evaluate the cytotoxic effects of the compounds. Under the intervention of such compounds, the living cells can be stained using a cell proliferation-cytotoxicity assay kit Cell Counting Kit-8 (CCK-8 solution), and the OD value was measured to reflect the survival and growth state of the cells, that is, the cell survival rate (%) and the cell growth inhibition rate (%).
(§4) The culture solution containing 10% FBS was regarded as a complete medium. […] After all the cells were cultured to logarithmic growth phase, the tests were performed as follows.
as §1, §2

[4] = tested on: U2OS; test: Inhibitory effects on various tumor cells; assay type: cell-based; settings: Homo sapiens
Description: as §1, §2

[5] = tested on: OV-90; test: Inhibitory effects on various tumor cells; assay type: cell-based; settings: Homo sapiens; OV-90 cells
Description: as §1, §2

[6] = tested on: RCC-4; test: Inhibitory effects on various tumor cells; assay type: cell-based; settings: Homo sapiens, RCC4; RCC-4 cells
Description: as §1, §2

[7] = tested on: SW1990; test: Inhibitory effects on various tumor cells; assay type: cell-based; settings: Homo sapiens
Description: as §1, §2

[8] = tested on: K562; test: Inhibitory effects on various tumor cells; assay type: cell-based; settings: Homo sapiens
Description: as §1, §2

[9] = tested on: DU-145; test: Inhibitory effects on various tumor cells; assay type: cell-based; settings: Homo sapiens; DU-145 cells
Description: as §1, §2

[10] = tested on: U87; test: Inhibitory effects on various tumor cells; assay type: cell-based; settings: Homo sapiens, U-87 MG
Description: as §1, §2

[11] = tested on: HC7116; test: Inhibitory effects on various tumor cells; assay type: cell-based
Description: as §1, §2

[12] = tested on: Kasumi; test: Inhibitory effects on various tumor cells; assay type: cell-based
Description: as §1, §2

[13] = tested on: RCC4 vhl; test: Inhibitory effects on various tumor cells; assay type: cell-based; settings: Homo sapiens
Description: as §1, §2

[14] = tested on: NB4; test: Inhibitory effects on various tumor cells; assay type: cell-based; settings: Homo sapiens, NB-4
Description: as §1, §2

[15] = tested on: HEPG-2; test: Inhibitory effects on various tumor cells; assay type: cell-based; settings: Homo sapiens, HepG2; HEPG-2 cells
Description: as §1, §2

[16] = tested on: MCF7 cells (HTB-22); test: Tumor cell growth inhibition, CCK-8 assay; assay type: cell-based; settings: Homo sapiens, 48 h, CCK-8, growth inhibition
Description: as §3, §4, §1, §2

[17] = tested on: PC-3 cells (CRL-1435); test: Tumor cell growth inhibition, CCK-8 assay; assay type: cell-based; settings: Homo sapiens, 48 h, CCK-8, growth inhibition, read-out: PC3 IC50
Description: as §3, §4, §1, §2

[18] = tested on: HeLa cells (CCL-2); test: Tumor cell growth inhibition, CCK-8 assay; assay type: cell-based; settings: Homo sapiens, 48 h, CCK-8, growth inhibition
Description: as §3, §4, §1, §2

[19] = tested on: 786-O cells (CRL-1932); test: Tumor cell growth inhibition, CCK-8 assay; assay type: cell-based; settings: Homo sapiens, 786-0; 48 h, CCK-8, growth inhibition
Description: as §3, §4, §1, §2

[20] = tested on: Jurkat cells (TIB-152); test: Tumor cell growth inhibition, CCK-8 assay; assay type: cell-based; settings: Homo sapiens, 48 h, CCK-8, growth inhibition
Description: as §3, §4, §1, §2

[21] = Vero normal cells, 48 h, CCK-8, cell survival rate, read-out: Vero CC50

For `C[C@H]1C(O[C@@H]2CC[C@@]3(C)C(C2)C[C@H](O)C2C3CC[C@@]3(C)C2CC[C@@H]3[C@H](C)CCC(=O)O)OC2OC3(C)CCC4[C@H](C)CCC1[C@@]24OO3` (stereo partly drawn) [JZ-2], the “tumor growth (tumor growth curve, FIG. 1)” value [1] was “significantly inhibit the tumor growth”, the deaths during treatment [1] was “no death” and the tumor inhibition rate [1] was 58%. For the same compound, the IC50 [2] was 20 nM, the CC50 at 48 h [3, 21] was 7810 nM and the IC50 [4] was 357 nM. The IC50 [5] was 157 nM, the IC50 [6] was 2500 nM and the IC50 [7] was 517 nM. It also gave an IC50 [8] of 157 nM, an IC50 [9] of 625 nM and an IC50 [10] of 517 nM. For the same compound, the IC50 [11] was 157 nM, the IC50 [12] was 157 nM and the IC50 [13] was 30000 nM. For the same compound, the IC50 [14] was 157 nM, the IC50 [15] was 500 nM and the IC50 [16] was 3390 nM. It also gave an IC50 [17] of 260 nM, an IC50 [18] of 40 nM and an IC50 [19] of 60 nM. The IC50 [20] was 240 nM.
In the case of `CC(=O)O[C@H]1C(=O)[C@@]2(C)[C@H]([C@H](OC(=O)c3ccccc3)[C@]3(O)C[C@H](OC(=O)[C@H](O)[C@@H](NC(=O)c4ccccc4)c4ccccc4)C(C)=C1C3(C)C)[C@]1(OC(C)=O)CO[C@@H]1C[C@@H]2O` [Taxol, paclitaxel, reference compound], the deaths during treatment [1] is reported as “one death”, the tumor inhibition rate [1] is reported as 52% and the IC50 [2] is reported as 6 nM. It also gave a CC50 at 48 h [3] of 1500 nM, an IC50 [4] of 10 nM and an IC50 [5] of 10 nM. The IC50 [6] was 10000 nM, the IC50 [7] was 10 nM and the IC50 [8] was 10 nM. It also gave an IC50 [9] of 10 nM, an IC50 [11] of 10 nM and an IC50 [12] of 10 nM. It also gave an IC50 [13] of 30000 nM, an IC50 [14] of 10 nM and an IC50 [15] of 10 nM. It also gave an IC50 [16] of 10 nM, an IC50 [17] of 6 nM and an IC50 [18] of 6 nM. For the same compound, the IC50 [19] was 6 nM and the IC50 [20] was 30 nM.
`C[C@H]1[C@@H](O)O[C@@H]2O[C@@]3(C)CC[C@H]4[C@H](C)CC[C@@H]1[C@@]24OO3` [Dihydroartemisinin] gave an IC50 [2] of 2960 nM, a CC50 at 48 h [3] of 5880 nM and an IC50 [16] of 100000 nM. The IC50 [17] was 2020 nM, the IC50 [18] was 1660 nM and the IC50 [19] was 1100 nM. It also gave an IC50 [20] of 100000 nM.
In the case of `CC(C)[C@@H](C)/C=C/[C@@H](C)[C@H]1CCC2C3=CC=C4CC(OC5OC6OC7(C)CCC8[C@H](C)CCC([C@H]5C)[C@@]68OO7)CC[C@]4(C)C3CC[C@@]21C` (stereo partly drawn) [JZ-6], the IC50 [2] is reported as 6330 nM, the CC50 at 48 h [3] is reported as 100000 nM and the IC50 [16] is reported as 45000 nM. For the same compound, the IC50 [17] was 100000 nM, the IC50 [18] was 100000 nM and the IC50 [19] was 100000 nM. The IC50 [20] was 34000 nM.
In the case of `C[C@H]1C(O[C@@H]2CC[C@@]3(C)C(C2)C[C@@H](O)C2C3CC[C@@]3(C)C2CC[C@@H]3[C@H](C)CCC(=O)O)OC2O[C@@]3(C)CCC4[C@H](C)CCC1[C@@]24OO3` (stereo partly drawn) [JZ-4], the IC50 [2] is reported as 2400 nM, the CC50 at 48 h [3, 21] is reported as 100000 nM and the IC50 [16] is reported as 35000 nM. It also gave an IC50 [17] of 25000 nM, an IC50 [18] of 25000 nM and an IC50 [19] of 100000 nM. It also gave an IC50 [20] of 32000 nM.
